According to US4247542A, “A-40104 Antibiotics and process for production thereof” (priority 1978, dated 1981):
≈ marks a conversion by molar mass, not a printed value.

Columns and labels:
[1] = test system: Pasteurella multocida (turkey); test: standard in vitro test against Pasteurella; format: cell-based
Text: Another veterinary aspect of this invention is the activity of the A-40104 antibiotics against Pasteurella species. P. multocida, for example, is a causative agent of respiratory infection in cattle, poultry, and swine. P. hemolytica is a major cause of respiratory disease in cattle. The activity of A-40104 factor A and its dihydro derivative against Pasteurella, as determined by standard in vitro tests, is summarized in Table X.

[2] = test system: Spiroplasma citri; test: in vitro test against Spiroplasma citri; format: cell-based; details: levels as low as, read-out: level inhibiting S. citri
Text: Another important aspect of this invention is the activity of the A-40104 antibiotics against Spiroplasmas. Spiroplasma citri is the causative agent of citrus-stubborn disease; another Spiroplasma, corn-stunt Spiroplasma, affects the growth of corn. In in vitro tests against Spiroplasma citri A-40104 factor A and its dihydro derivative inhbit S. citri when applied at levels as low as 0.01 ppm.

[3] = test system: Eubacterium aerofaciens; test: standard agar-dilution test, anaerobic bacteria; format: cell-based; details: Collinsella aerofaciens, read after 24 hours
Text: Table VIII summarizes the activity of A-40104 factor A, as determined by the standard agar-dilution test.
*MIC determined by the agardilution method. Endpoints were read after 24

[4] = test system: Mycoplasma gallisepticum; test: in vitro broth-dilution MIC, mycoplasma; format: cell-based
Text: (§1) The minimal inhibitory concentrations (MIC's) of A-40104 factor A; 19,20-dihydro-A-40104 factor A; and the tetraacetyl derivative of A-40104A against various mycoplasma species, as determined by in vitro broth-dilution studies, are summarized in Table IX.

[5] = test system: Mycoplasma synoviae; test: in vitro broth-dilution MIC, mycoplasma; format: cell-based
Text: as §1

[6] = test system: powdery mildew; test: control of powdery mildew on bean plants; format: in vivo; details: soil drench at 100 ppm
Text: (§2) The A-40104 antibiotics are also active against plant pathogens. […] The systemic activity of these antibiotics is especially advantageous in the control of plant pathogens or Spiroplasmas.

[7] = test system: powdery mildew; test: control of powdery mildew on barley plants; format: in vivo; details: soil drench at 100 ppm
Text: as §2

[8] = solubility
[9] = test system: swine dysentery; details: W. E. Brown et al. U.S. Pat. No. 4,041,175; cited from earlier work

Row | SMILES | MIC [1] | MIC [2] | MIC [3] | MIC [4] | MIC [5] | control of powdery mildew [6] | control of powdery mildew [7] | solubility in chloroform ([8]; chloroform) | solubility in alcohols ([8]; ethanol) | solubility in alcohols ([8]; methanol) | solubility in water ([8]; water) | effect in swine dysentery [9]
1 | CCC1(C)CC(OC(=O)CO[C@@H]2OC[C@@H](O)[C@H](O)[C@H]2O)C2(C)C(C)CCC3(CCC(=O)C32)C(C)C1O (stereo partly shown) [19,20-dihydro-A-40104 factor A, 19,20-Dihydro-A-40104 Factor A] | 12.5 µg/mL (≈ 24.4 µM) | ≤ 0.01 µg/mL | – | – | – | – | – | – | – | – | – | –
2 | C=CC1(C)CC(OC(=O)CO[C@@H]2OC[C@@H](O)[C@H](O)[C@H]2O)C2(C)C(C)CCC3(CCC(=O)C32)C(C)C1O (stereo partly drawn) [A-40104 factor A, β,D-xylopyranosyl acetal derivative of pleuromutilin] | 12.5 µg/mL (≈ 24.5 µM) | – | 16 µg/mL (≈ 31.3 µM) | < 0.78 µg/mL | < 0.78 µg/mL | control of powdery mildew is obtained | control of powdery mildew is obtained | partially soluble | soluble | soluble | insoluble | –
3 | C=C[C@]1(C)C[C@@H](OC(=O)CO)[C@]2(C)[C@H](C)CC[C@]3(CCC(=O)[C@H]32)[C@@H](C)[C@@H]1O [A-40104 factor C, pleuromutilin] | – | – | – | – | – | – | – | – | – | – | – | effective in the treatment of swine dysentery
